What follows are compounds tested on T1, Lip3 (assay: p-nitrophenol release at […] nm, Lineweaver-Burk). Conditions: 0.1 M Tris-HCl pH 8.0, 35 °C, 3 % acetonitrile.
T1 construct: catalytic triad Ser150, Asp207, His267; primers encode N-terminal MNNYIID and C-terminal CLKSLL before the His tag
Format: biochemical, uncultured bacterium

**Q.** CC(=O)Oc1ccc([N+](=O)[O-])cc1 [pNP-acetate] was tested. Which “K M (M.10^-3)” value did it give?
**A.** Its value is 2.38 ± 0.56 M∙10^−3.

**Q.** For CCCCCCCCCC(=O)Oc1ccc([N+](=O)[O-])cc1 [pNP-decanoate], which “K M (M.10^-3)” value is on record?
**A.** Its value is 1.03 ± 0.12 M∙10^−3.

**Q.** CCCCC(=O)Oc1ccc([N+](=O)[O-])cc1 [pNP-pentanoate] was tested. Which “K M (M.10^-3)” value did it give?
**A.** Its value is 1.52 ± 0.20 M∙10^−3.

**Q.** For CCCCCCCC(=O)Oc1ccc([N+](=O)[O-])cc1 [pNP-octanoate], which “K M (M.10^-3)” value is on record?
**A.** The value was 0.36 ± 0.04 M∙10^−3.

**Q.** For CCCC(=O)Oc1ccc([N+](=O)[O-])cc1 [pNP-butanoate], which “K M (M.10^-3)” value is on record?
**A.** The value was 1.05 ± 0.16 M∙10^−3.

From publication PMC4717575, “Characterization of a cold-active and salt tolerant esterase identified by functional screening of Arctic metagenomic libraries” (BMC Biochemistry, 2016)
